According to article PMC12192727, “Strategies to Develop Na,K-ATPase-α4 Inhibitors as Male Contraceptives” (International Journal of Molecular Sciences, 2025):
Values after ≈ are worked out from the molar mass of the structure shown.

Key:
[1] = Solubility as noted when testing was attempted; type: physicochemical
[2] = physchem; type: physicochemical; settings: PBS pH 7.4; read-out: Solubility
Experimental: The stock solutions of 11 and 45 were prepared in DMSO at a concentration of 30 mM, and the stock solution of the control compound was prepared in DMSO at a concentration of 30 mM. Progesterone was used as a positive control in the assay. An amount of 10 µL of stock solution of each compound was placed in order into their proper 96-well rack, followed by adding 990 µL of PBS at pH 7.4 into each vial of the capless Solubility Sample plate. This study was performed in duplicate. One stir stick was added to each vial and then sealed using a molded PTDE/SIL 96-Well Plate Cover (Pharmaron, Waltman, MA, USA). The Solubility Sample plate was transferred to the Thermomixer Comfort plate shaker and incubated at RT for 2 h with shaking at 1100 rpm. After 2 h of incubation, stir sticks were removed using a big magnet, and all samples from the Solubility Sample plate were transferred into the filter plate. All the samples were filtered using a vacuum manifold. The filtered samples were diluted with methanol. The soluble fraction (filtrate) was then analyzed by LC-MS/MS, and the compound concentration was determined using 0.3 μM standard solutions prepared from DMSO stocks. The experimental details are reported in the Supporting Information (Table S1). […]
Table S1 . Solubility Results of Test C ompound and Control C ompound in […]
Compound ID Solubility (µM)
Preparation of Stock Solutions: The stock solutions of test compounds were prepared in DMSO at the concentration of 30 mM, and the stock solution of control compound was prepared in DMSO at the concentration of 30 mM.
Progesterone was used as positive control in the assay.
Solubility Determination: 10 µL stock solution of each compound was placed in order into their proper 96-well rack, followed by adding 990 µL of PBS at pH 7.4 into each vial of the cap-less Solubility Sample plate. This study was performed in duplicate. One stir stick was added to each vial and then vials were sealed using a molded PTDE/SIL 96-Well Plate Cover. The Solubility Sample plate was transferred to the Thermomixer Comfort plate shaker and incubated at RT for 2 hours with shaking at 1100 rpm. After 2 hours incubation, stir sticks were removed using a big magnet and all samples from the Solubility Sample plate were transferred into the filter plate. All the samples were filtered by using the Vacuum Manifold. The filtered samples were diluted with methanol. The dilution factor might be changed according to the solubility value and the LC/MS signal response. To prepare 0.3 µM Standards (STD), 30 mM DMSO compound stock solutions were diluted with DMSO to 300 µM and then diluted with methanol to obtain 0.3 µM STDs. Samples were analyzed by LC-MS/MS. All calculations were carried out using Microsoft Excel. The solution filtered was analyzed and quantified against a standard of known concentration in DMSO using LC coupled with Mass spectral peak identification and quantitation. The solubility values of the test compounds were calculated as follow DF means the dilution factor
1. Chromatographic conditions
Apparatus: Triple QuadTM 5500 instrument from AB Inc (Canada) with an ESI interface Column: XSelect Hss T3 2.5µ (2.1×50 mm) Column XP coupled with preguard column Mobile phase: 0.1% formic acid in acetonitrile (A) and 0.1% formic acid in water (B) […]

C[C@]12CC[C@H]3[C@@H](CC=C4C[C@@H](O)CC[C@@]43C)[C@@H]1CC[C@@H]2n1cc(-c2ccccc2)nn1 [Compound 30, (3S,8R,9S,10R,13S,14S,17S)-10,13-Dimethyl-17-(4-phenyl-1H-1,2,3-triazol-1-yl)-2,3,4,7,8,9,10,11,12,13,14,15,16,17-tetradecahydro-1H-cyclopenta[a]phenanthren-3-ol]
Solubility (in words, precluded testing) [1]: inadequate solubility

CC12CCC(=O)C=C1CCCC2c1cn(Cc2ccccc2)nn1 (stereo not drawn) [Compound 39, 5-(1-Benzyl-1H-1,2,3-triazol-4-yl)-4a-methyl-4,4a,5,6,7,8-hexahydronaphthalen-2(3H)-one]
Solubility (in words, precluded testing) [1]: poor solubility

CC(=O)[C@H]1CC[C@H]2[C@@H]3CCC4=CC(=O)CC[C@]4(C)[C@H]3CC[C@]12C [Progesterone, reference compound]
Solubility [2]: 18.0 µM (≈ 5.66 µg/mL)
